What all share (format): cell-based
What all share (settings): Homo sapiens, compound 5 hours at 37° C., 1% DMSO, percent vehicle fit to 4 parameter curve

For test [1], the system named is Aβ-42. Nature of the test: Aβ-42 level in conditioned media of 2B7 cells (MSD 3-PLEX ELISA). An outline of the steps: (§1)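 2B7 cells at confluence were exposed to compound dilutions in medium (1% DMSO final) for 5 h at 37 °C. Conditioned medium, diluted 1:1 in blocking buffer, was assayed by MSD 3-plex electrochemiluminescence ELISA, and levels were read from a seven-point standard curve. IC50 came from a 4-parameter fit of percent-of-vehicle values.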
On the technique in general: An ELISA detects its analyte on a solid surface through an enzyme-linked reagent.

Test [2] has as its system Aβ-38. Description: Aβ-38 level in conditioned media of 2B7 cells (MSD 3-PLEX ELISA). An outline of the steps:
as §1

The subject of test [3] is Aβ-40. Nature of the test: Aβ-40 level in conditioned media of 2B7 cells (MSD 3-PLEX ELISA). How it is done: Assays were conducted to determine the ability of a Compound of Formula I to modulate […], and Aβ-38.
Human (6E10) Ab 3-PLEX elisa kits were purchased from Meso Scale Discovery Labs, 9328 Gaither Road, Gaithersburg, Md. 20877 (Catalog Number K15148E-3). Plates with capture antibodies were blocked for 1-2 hours at room temperature with 150 μL of the manufactures blocking reagent.
Cultured 2B7 cells in 96 well plate with 250 uL of media per well until confluent;
Prepared serial dilutions of compounds in DMSO at 100× the final desired concentration;
Washed wells with 2B7 cells 1× with 250 uL of media;
Diluted DMSO stocks 1:100 into media:
Added 250 μL of media containing compounds (1% DMSO) to wells with 2B7 cells for 5 hours at 37° C.
Diluted conditioned media: 1 part media with 1% DMSO and 1 part blocking buffer;
150 μL of the 250 μL of conditioned media were used.
Standard Curve Sample Prep:
Prepared per manufacturer's protocol (see above)
Seven point standard curve samples were prepared that contained Aβ-42, Aβ-40, and Aβ-38. The highest concentration of Aβ-42 and Aβ-38 was 3,000 pg/mL and the highest concentration of Aβ-40 was 10,000 pg/mL. Subsequent serial dilutions were 1:3 and the final composition of each sample was 1 part blocking buffer and 1 part cell medium containing 1% DMSO.
Overnight Sample Incubation:
Blocked plates are washed 5× with MSD wash buffer with a plate washer
25 uL of detection antibody and blocker G reagent in MSD blocking solution is added
25 uL of samples (1 part conditioned media containing 1% DMSO and 1 part MSD blocking buffer) are then added.
plates are incubated overnight at 4 degrees C. or 2 hours at room temp
Wash wells 5× with MSD wash buffer
Added 150 μL 2×MSD read buffer
A-Beta peptide levels for each peptide are calculated from the standard curve using the MSD software provided with the MSD 2400 Imager. Percent vehicle values for each compound dosage were then calculated and fit to a 4 parameter curve generating IC50 values.

Broadly, the IC50 is the concentration needed to halve the response being measured. With `CCO[C@@H]([C@H]1C[C@@H](C)[C@H]2[C@H](O1)[C@H](O)[C@@]1(C)[C@@H]3CC[C@H]4C(C)(C)[C@@H](OC(=O)[C@@H]5COCCN5C)CCC45C[C@@]35CC[C@]21C)C(C)(C)O` (stereo partly drawn), the IC50 in test [1] was less than 1000 nM; in test [2] it was less than 1000 nM; in test [3], 1000 to 10000 nM.
In the case of `CCO[C@@H]([C@H]1C[C@@H](C)[C@H]2[C@H](O1)[C@H](O)[C@@]1(C)[C@@H]3CC[C@H]4C(C)(C)[C@@H](OC(=O)C5CCN5C)CCC45C[C@@]35CC[C@]21C)C(C)(C)O` (stereo partly drawn), the IC50 in test [1] is less than 1000 nM; in test [2], 1000 to 10000 nM; in test [3], greater than 10000 nM.
Regarding `CO[C@@H]([C@H]1C[C@@H](C)[C@H]2[C@H](O1)[C@H](O)[C@@]1(C)[C@@H]3CC[C@H]4C(C)(C)[C@@H](O[C@H]5CN(CCN(C)C)CCO5)CCC45C[C@@]35CC[C@]21C)C(C)(C)OC` (stereo partly drawn), the IC50 in test [1] was less than 1000 nM; in test [2] it was less than 1000 nM; in test [3] it was 1000 to 10000 nM.
In the case of `CCO[C@@H]([C@H]1C[C@@H](C)[C@H]2[C@H](O1)[C@H](O)[C@@]1(C)[C@@H]3CC[C@H]4C(C)(C)C(O[C@H]5CN(CCNCCCOCCOCCOCCCNC(=O)CCCCC6SC[C@@H]7NC(=O)N[C@H]67)CCO5)CC[C@@]45CC35CC[C@]21C)C(C)(C)O` (stereo partly drawn), the results for the concentration for half-maximal inhibition (IC50) in test [1], in test [2] and in test [3] were less than 1000 nM, less than 1000 nM and 1000 to 10000 nM, respectively.
For `CO[C@@H](C1C[C@@H](C)[C@H]2C(O1)[C@H](O)[C@@]1(C)C3CC[C@H]4C(C)(C)[C@@H](O[C@H]5CNCCO5)CC[C@@]45CC35CC[C@]21C)C(C)(C)O` (stereo partly drawn), the IC50 was less than 1000 nM in test [1], less than 1000 nM in test [2] and 1000 to 10000 nM in test [3].
With `CCO[C@@H]([C@H]1C[C@@H](C)[C@H]2[C@H](O1)[C@H](O)[C@@]1(C)[C@@H]3CC[C@H]4C(C)(C)[C@@H](OC(=O)[C@@H]5COCCN5)CCC45C[C@@]35CC[C@]21C)C(C)(C)O` (stereo partly drawn), the concentration for half-maximal inhibition (IC50) in test [1] was less than 1000 nM; in test [2] it was less than 1000 nM; in test [3], 1000 to 10000 nM.
On to `CCO[C@@H]([C@H]1C[C@@H](C)[C@H]2[C@H](O1)[C@H](O)[C@@]1(C)[C@@H]3CC[C@H]4C(C)(C)[C@@H](O[C@H]5CN([C@@H](C)COC)CCO5)CC[C@@]45C[C@@]35CC[C@]21C)C(C)(C)O`, for which the IC50 in test [1] is less than 1000 nM; in test [2] it was 1000 to 10000 nM; in test [3] it was greater than 10000 nM.
Taken in the same sequence, the figures for `CCO[C@@H](C1C[C@@H](C)[C@H]2C(O1)[C@H](O)[C@@]1(C)C3CC[C@H]4C(C)(C)[C@@H](O[C@H]5CN(CC(C)(C)N6CCOCC6)CCO5)CCC45C[C@@]35CC[C@]21C)C(C)(C)O` (stereo partly drawn) were less than 1000 nM, less than 1000 nM and 1000 to 10000 nM.
Taken in the same sequence, the figures for `CCO[C@@H](C1C[C@@H](C)[C@H]2C(O1)[C@H](O)[C@@]1(C)C3CC[C@H]4C(C)(C)[C@@H](O[C@H]5CN(c6ccccn6)CCO5)CCC45C[C@@]35CC[C@]21C)C(C)(C)O` (stereo partly drawn) were 1000 to 10000 nM, 1000 to 10000 nM and 1000 to 10000 nM.
For `CCO[C@@H]([C@H]1C[C@@H](C)[C@H]2[C@H](O1)[C@H](O)[C@@]1(C)[C@@H]3CC[C@H]4C(C)(C)[C@@H](O[C@H]5CN(C(C)(C)CO)CCO5)CCC45C[C@@]35CC[C@]21C)C(C)(C)O` (stereo partly drawn), the half-maximal inhibitory concentration (IC50) in test [1] is less than 1000 nM; in test [2], less than 1000 nM; in test [3], 1000 to 10000 nM.
As to `CCO[C@@H]([C@H]1C[C@@H](C)[C@H]2[C@H](O1)[C@H](O)[C@@]1(C)[C@@H]3CC[C@H]4C(C)(C)[C@@H](OC(=O)C5CN(CCOC)C5)CCC45C[C@@]35CC[C@]21C)C(C)(C)O` (stereo partly drawn), the IC50 in test [1] was less than 1000 nM; in test [2], less than 1000 nM; in test [3], 1000 to 10000 nM.
As for `CCO[C@@H]([C@H]1C[C@@H](C)[C@H]2[C@H](O1)[C@H](O)[C@@]1(C)[C@@H]3CC[C@H]4C(C)(C)[C@@H](O[C@H]5CN(C6CN(C(C)C)C6)CCO5)CCC45C[C@@]35CC[C@]21C)C(C)(C)OC` (stereo partly drawn), the IC50 in test [1] was less than 1000 nM; in test [2], less than 1000 nM; in test [3] it was 1000 to 10000 nM.
For `CCO[C@@H]([C@H]1C[C@@H](C)[C@H]2[C@H](O1)[C@H](O)[C@@]1(C)[C@@H]3CC[C@H]4C(C)(C)[C@@H](OC(=O)C5CCN5)CCC45C[C@@]35CC[C@]21C)C(C)(C)O` (stereo partly drawn), the IC50 in test [1] is less than 1000 nM; in test [2], less than 1000 nM; in test [3], 1000 to 10000 nM.
For `CCO[C@@H]([C@H]1C[C@@H](C)[C@H]2[C@H](O1)[C@H](O)[C@@]1(C)[C@@H]3CC[C@H]4C(C)(C)[C@@H](O[C@H]5CN([C@@H](C)CO)CCO5)CCC45C[C@@]35CC[C@]21C)C(C)(C)O` (stereo partly drawn), the IC50 in test [1] is less than 1000 nM; in test [2] it was less than 1000 nM; in test [3], 1000 to 10000 nM.
With `CCO[C@@H]([C@H]1C[C@@H](C)[C@H]2[C@H](O1)[C@H](O)[C@@]1(C)[C@@H]3CC[C@H]4C(C)(C)[C@@H](O[C@H]5CN(Cc6ncc[nH]6)CCO5)CCC45C[C@@]35CC[C@]21C)C(C)(C)O` (stereo partly drawn), the IC50 in test [1] is less than 1000 nM; in test [2] it was less than 1000 nM; in test [3], 1000 to 10000 nM.
On to `CCO[C@@H]([C@H]1C[C@@H](C)[C@H]2[C@H](O1)[C@H](O)[C@@]1(C)[C@@H]3CC[C@H]4C(C)(C)[C@@H](O[C@H]5CN(c6cncc(F)c6)CCO5)CCC45C[C@@]35CC[C@]21C)C(C)(C)C` (stereo partly drawn), for which the IC50 in test [1] is 1000 to 10000 nM; in test [2], 1000 to 10000 nM; in test [3], greater than 10000 nM.
On to `CCO[C@@H]([C@H]1C[C@@H](C)[C@H]2[C@H](O1)[C@H](O)[C@@]1(C)[C@@H]3CC[C@H]4C(C)(C)[C@@H](O[C@H]5CN([C@H](C)COC)CCO5)CCC45C[C@@]35CC[C@]21C)C(C)(C)O` (stereo partly drawn), for which the IC50 in test [1] was less than 1000 nM; in test [2], 1000 to 10000 nM; in test [3] it was greater than 10000 nM.
`CCO[C@@H]([C@H]1C[C@@H](C)[C@H]2[C@H](O1)[C@H](O)[C@@]1(C)[C@@H]3CC[C@H]4C(C)(C)[C@@H](O[C@H]5CN(C6CN(C(C)=O)C6)CCO5)CCC45C[C@@]35CC[C@]21C)C(C)(C)O` (stereo partly drawn): the IC50 in test [1] is less than 1000 nM; in test [2], 1000 to 10000 nM; in test [3], 1000 to 10000 nM.
Turning to `CO[C@@H]([C@H]1C[C@@H](C)[C@H]2[C@H](O1)[C@H](O)[C@@]1(C)[C@@H]3CC[C@H]4C(C)(C)[C@@H](OC5CN(C6CN(C)C6)CCO5)CCC45C[C@@]35CC[C@]21C)C(C)(C)O` (stereo partly drawn), the IC50 in test [1] was less than 1000 nM; in test [2] it was less than 1000 nM; in test [3] it was 1000 to 10000 nM.
On to `CCO[C@@H](C1C[C@@H](C)[C@H]2C(O1)[C@H](O)[C@@]1(C)C3CC[C@H]4C(C)(C)[C@@H](O[C@H]5CN(C(=O)CC6CN(C)C6)CCO5)CCC45C[C@@]35CC[C@]21C)C(C)(C)O` (stereo partly drawn), for which the IC50 was less than 1000 nM in test [1], less than 1000 nM in test [2] and 1000 to 10000 nM in test [3].
In the case of `CCO[C@@H]([C@H]1C[C@@H](C)[C@H]2[C@H](O1)[C@H](O)[C@@]1(C)[C@@H]3CC[C@H]4C(C)(C)C(O[C@H]5CN(CCNC(=O)CCC6(C)N=N6)CCO5)CC[C@@]45CC35CC[C@]21C)C(C)(C)O` (stereo partly drawn), the IC50 in test [1] was less than 1000 nM; in test [2] it was less than 1000 nM; in test [3] it was greater than 10000 nM.
Take `CCO[C@@H]([C@H]1C[C@@H](C)[C@H]2[C@H](O1)[C@H](O)[C@@]1(C)[C@@H]3CC[C@H]4C(C)(C)[C@@H](O[C@H]5CN(CCO)CCO5)CCC45C[C@@]35CC[C@]21C)C(C)(C)O` (stereo partly drawn): the values for the IC50 in test [1], in test [2] and in test [3] were less than 1000 nM, less than 1000 nM and 1000 to 10000 nM, respectively.
Take `CCO[C@@H]([C@H]1C[C@@H](C)[C@H]2[C@H](O1)[C@H](O)[C@@]1(C)[C@@H]3CC[C@H]4C(C)(C)[C@@H](O[C@H]5CN([C@H](C)CF)CCO5)CCC45C[C@@]35CC[C@]21C)C(C)(C)O` (stereo partly drawn): the IC50 in test [1] was 1000 to 10000 nM; in test [2] it was 1000 to 10000 nM; in test [3] it was greater than 10000 nM.
As to `CCO[C@@H](C1C[C@@H](C)[C@H]2C(O1)[C@H](O)[C@@]1(C)C3CC[C@H]4C(C)(C)[C@@H](O[C@H]5CN(C(=O)CC6CNC6)CCO5)CCC45C[C@@]35CC[C@]21C)C(C)(C)O` (stereo partly drawn), the IC50 in test [1] was less than 1000 nM; in test [2] it was less than 1000 nM; in test [3], 1000 to 10000 nM.

For the origin of these results see patent publication US20130060013A1, “Compounds useful for treating neurodegenerative disorders” (SATORI PHARMACEUTICALS, INC., priority 2011, published 2013).
